The values below come from PMC4972714 (Bioorganic & medicinal chemistry, 2016).

Assay [1] deals with HIV-1 NL4-3 in U87-CD4/CXCR4 cells. The assay is described as follows: Viral replication assay, p24 read-out. It counts as cell-based. The settings on record: 10 µM, infection over several days, NL4-3 in U87-CD4/CXCR4 cells (Fig. 1A).
The test system of assay [2] is HIV-1 RRE IIB RNA. The experiment in a line: Dot blot assay, binding to RRE IIB RNA. The settings on record: dot blot Kd relative to BPBA3.
The target in assay [3] is HIV-1 RRE IIB RNA. Conditions: native Rev protein with RRE; ref [26], [58]; cited from earlier work.

Turning to `Nc1ccn([C@@H]2CS[C@H](CO)O2)c(=O)n1` [3TC, 2′,3′-dideoxy-3′-thiacytidine], the “HIV-1 replication screening, p24 expression” value (“HIV-1 replication screening” below) in assay [1] was “completely abolished p24 expression”.

Take `Cc1cn([C@H]2C[C@H](N=[N+]=[N-])[C@@H](CO)O2)c(=O)[nH]c1=O` [AZT, azidothymidine]: in assay [1], the “HIV-1 replication screening” value is on record as “completely abolished p24 expression”.

As for Elvitegravir, the “HIV-1 replication screening” value in assay [1] was “completely abolished p24 expression”.

For FBPAYFBPA*NKSY [LBPBA3A], in the assay on HIV-1 RRE IIB RNA [2], the “loss in binding affinity towards RRE IIB versus BPBA3” value is recorded as 2 fold.

For FBPAYFBPAFBPAYFBPA*NKSY [LBPBA3B], the “loss in binding affinity towards RRE IIB versus BPBA3” value in the assay with HIV-1 RRE IIB RNA [2] amounted to 3 fold.

On to Raltegravir, for which the “HIV-1 replication screening” value in assay [1] is recorded as “completely abolished p24 expression”.

Take “Rev protein: native HIV-1 Rev protein that binds RRE”: the “dissociation constant with RRE” value at HIV-1 RRE IIB RNA [3] is on record as “low nanomolar range”.
